Assay results published in patent publication US6218400A, “Treatment method using a cGMP-Specific PDE inhibitor” (ICOS Corporation, priority 1995, dated 2001).

Tests used:
[1] = tested on: Rat aortic smooth muscle cells (RSMC); assay: cGMP level measurements in rat aortic smooth muscle cells (RSMC); type: cell-based; settings: 10 min, cGMP after ANF (100 nM) stimulation for 10 minutes, dose giving half of the stimulation at saturating concentrations
Description: Rat aortic smooth muscle cells (RSMC) prepared according to Chamley et al. in Cell Tissue Res. 177, 503-522 (1977) were used between the 10th and 25th passage at confluence in 24-well culture dishes. Culture media was aspirated and replaced with PBS (0.5 ml) containing the compound tested at the appropriate concentration. After 30 minutes at 37° C., particulates guanylate cyclase was stimulated by addition of ANF (100 nM) for 10 minutes. At the end of incubation, the medium was withdrawn and two extractions were performed by addition of 65% ethanol (0.25 ml). The two ethanolic extracts were pooled and evaporated until dryness, using a Speed-vac system. c-GMP was measured after acetylation by scintillation proximity immunoassay ([…]). The EC50 values are expressed as the dose giving half of the stimulation at saturating concentrations

human recombinant PDE V = human recombinant PDE V (Homo sapiens, UniProt O76074); assay: Inhibitory effect on cGMP-PDE (one-step assay, human recombinant PDE V); type: biochemical; settings: 0.15 μM 8-[H^3]-cGMP, 2% DMSO, 30 minutes
Description: cGMP-PDE activity of compounds of the present invention was measured using a one-step assay adapted from Wells at al. (Wells, J. N., Baird, C. E., Wu, Y. J. and Hardman, J. G., Biochim. Biophys. Acta 384, 430 (1975)). The reaction medium contained 50 mM Tris-HCl,pH 7.5, 5 mM Mg-acetate, 250 μg/ml 5'-Nucleotidase, 1 mM EGTA and 0.15 μM 8-[H^3 ]-cGMP. The enzyme used was a human recombinant PDE V (ICOS, Seattle USA).
Compounds of the invention were dissolved in DMSO finally present at 2% in the assay.

[2] = tested on: conscious spontaneously hypertensive rats (SHRs); assay: Hypotensive effects in conscious spontaneously hypertensive rats; type: in vivo, rat; settings: AUC from 0 to 5 hours
Description: The hypotensive effects of compounds according to the invention as identified in Table 2 were studied in conscious spontaneously hypertensive rats (SHRs). The compounds were administered orally at a dose of 5 or 10 mg/kg in a mixture of 5% DMF and 95% olive oil, or i.v. at a dose of 10 mg/kg in a mixture of 40% dimethylformamide, 25% tetraglycol, and […]. Blood pressure was measured from a catheter inserted in the carotid artery and recorded for 5 hours after administration. The results are expressed as Area Under the Curve (AUC from 0 to 5 hours, mmHg.hour) of the fall in blood pressure over time.

Structure (SMILES): O=C1[C@H]2Cc3c([nH]c4ccccc34)[C@H](c3ccc4c(c3)OCO4)N2C(=O)N1Cc1ccccc1 (relative stereo) [1 (cis isomer), Cis-2-benzyl-5-(3,4-methylenedioxyphenyl)-5,6,11,11a-tetrahydro-1H-imidazo [1',5':1,6]pyrido[3,4-b]indole-1,3(2H)-dione]
- EC50 [1]: 300 nM
- IC50 (human recombinant PDE V): < 10 nM
- AUC of the fall in blood pressure over time ([2]; dosed at 5 mg/kg p.o.): 104 mmHg·h

Structure (SMILES): CCCCN1C(=O)[C@@H]2Cc3c([nH]c4ccccc34)[C@H](c3ccc(OC)cc3)N2C1=O (relative stereo) [Example 10, Trans-2-butyl-5-(4-methoxyphenyl)-5,6,11,11a-tetrahydro-1H-imidazo [1',5':1,6] pyrido[3,4-b]indole-1,3(2H)-dione]
- EC50 [1]: < 1000 nM
- AUC of the fall in blood pressure over time ([2]; dosed at 10 mg/kg i.v.): 147 mmHg·h

Structure (SMILES): O=C1[C@H]2Cc3c([nH]c4ccccc34)[C@@H](c3ccc4c(c3)OCO4)N2C(=O)N1Cc1ccccc1 [Example 32, (5R,11aR)-2-benzyl-5-(3,4-methylenedioxyphenyl)-5,6,11,11a-tetrahydro-1H-imidazo [1',5':1,6]pyrido[3,4-b]indole-1,3(2H)-dione]
- EC50 [1]: 200 nM
- IC50 (human recombinant PDE V): < 10 nM
- AUC of the fall in blood pressure over time ([2]; dosed at 5 mg/kg p.o.): 65 mmHg·h

Structure (SMILES): COc1ccc([C@H]2c3[nH]c4ccccc4c3C[C@@H]3C(=O)N(C4CCCCC4)C(=O)N23)cc1 (relative stereo) [26 (cis isomer), Cis-2-cyclohexyl-5-(4-methoxyphenyl)-5,6,11,11a-tetrahydro-1H-imidazo [1',5':1,6] pyrido[3,4-b]indole-1,3(2H)-dione]
- EC50 [1]: 300 nM
- IC50 (human recombinant PDE V): 7 nM
- AUC of the fall in blood pressure over time ([2]; dosed at 10 mg/kg i.v.): 117 mmHg·h
